{"source": "patent US20260285850A1", "about": "“SUBSTITUTED OXAZOLIDINONES AND IMIDAZOLINONES AS HERBICIDES” (FMC CORPORATION, priority 2023, published 2026)", "assay_type_in_all_cases": "in vivo", "key": {"[1]": {"tested_on": "barnyardgrass (Echinochloa crus-galli)", "experiment": "Test A preemergence soil spray, visual injury rating 0-100", "conditions": "10 days, 0 = no effect, 100 = complete control", "method_in_brief": "(§1)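 Compounds formulated in a non-phytotoxic solvent with surfactant are sprayed onto soil of freshly planted loam-sand pots ahead of emergence, or onto emerged plants 2-10 cm tall. After a 10-day greenhouse period, each species is scored visually for injury against untreated controls.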"}, "[2]": {"tested_on": "blackgrass (Alopecurus myosuroides)", "experiment": "Test A preemergence soil spray, visual injury rating 0-100", "conditions": "10 days, 0 = no effect, 100 = complete control", "method_in_brief": "as §1"}, "corn (Zea mays) [3]": {"tested_on": "corn (Zea mays)", "experiment": "Test A preemergence soil spray, visual injury rating 0-100", "conditions": "10 days, 0 = no effect, 100 = complete control", "method_in_brief": "as §1"}, "[4]": {"tested_on": "green foxtail (Setaria viridis)", "experiment": "Test A preemergence soil spray, visual injury rating 0-100", "conditions": "10 days, 0 = no effect, 100 = complete control", "method_in_brief": "as §1"}, "kochia (Bassia scoparia) [5]": {"tested_on": "kochia (Bassia scoparia)", "experiment": "Test A preemergence soil spray, visual injury rating 0-100", "conditions": "10 days, 0 = no effect, 100 = complete control", "method_in_brief": "as §1"}, "[6]": {"tested_on": "oat, wild (wild oat, Avena fatua)", "experiment": "Test A preemergence soil spray, visual injury rating 0-100", "conditions": "10 days, 0 = no effect, 100 = complete control", "method_in_brief": "as §1"}, "[7]": {"tested_on": "palmer (palmer amaranth, palmer pigweed, Amaranthus palmeri)", "experiment": "Test A preemergence soil spray, visual injury rating 0-100", "conditions": "10 days, 0 = no effect, 100 = complete control", "method_in_brief": "as §1"}, "[8]": {"tested_on": "ragweed (common ragweed, Ambrosia artemisiifolia)", "experiment": "Test A preemergence soil spray, visual injury rating 0-100", "conditions": "10 days, 0 = no effect, 100 = complete control", "method_in_brief": "as §1"}, "soybean (Glycine max) [9]": {"tested_on": "soybean (Glycine max)", "experiment": "Test A preemergence soil spray, visual injury rating 0-100", "conditions": "10 days, 0 = no effect, 100 = complete control", "method_in_brief": "as §1"}, "[10]": {"tested_on": "wheat (Triticum aestivum)", "experiment": "Test A preemergence soil spray, visual injury rating 0-100", "conditions": "10 days, 0 = no effect, 100 = complete control", "method_in_brief": "as §1"}, "[11]": {"tested_on": "barnyardgrass (Echinochloa crus-galli)", "experiment": "Test A postemergence application, visual injury rating 0-100", "conditions": "10 days", "method_in_brief": "as §1"}, "[12]": {"tested_on": "blackgrass (Alopecurus myosuroides)", "experiment": "Test A postemergence application, visual injury rating 0-100", "conditions": "10 days", "method_in_brief": "as §1"}, "corn (Zea mays) [13]": {"tested_on": "corn (Zea mays)", "experiment": "Test A postemergence application, visual injury rating 0-100", "conditions": "10 days", "method_in_brief": "as §1"}, "[14]": {"tested_on": "galium (catchweed bedstraw, Galium aparine)", "experiment": "Test A postemergence application, visual injury rating 0-100", "conditions": "10 days", "method_in_brief": "as §1"}, "[15]": {"tested_on": "green foxtail (Setaria viridis)", "experiment": "Test A postemergence application, visual injury rating 0-100", "conditions": "10 days", "method_in_brief": "as §1"}, "[16]": {"tested_on": "horseweed (Erigeron canadensis)", "experiment": "Test A postemergence application, visual injury rating 0-100", "conditions": "10 days", "method_in_brief": "as §1"}, "kochia (Bassia scoparia) [17]": {"tested_on": "kochia (Bassia scoparia)", "experiment": "Test A postemergence application, visual injury rating 0-100", "conditions": "10 days", "method_in_brief": "as §1"}, "[18]": {"tested_on": "oat, wild (wild oat, Avena fatua)", "experiment": "Test A postemergence application, visual injury rating 0-100", "conditions": "10 days", "method_in_brief": "as §1"}, "[19]": {"tested_on": "palmer (palmer amaranth, palmer pigweed, Amaranthus palmeri)", "experiment": "Test A postemergence application, visual injury rating 0-100", "conditions": "10 days", "method_in_brief": "as §1"}, "[20]": {"tested_on": "ragweed (common ragweed, Ambrosia artemisiifolia)", "experiment": "Test A postemergence application, visual injury rating 0-100", "conditions": "10 days", "method_in_brief": "as §1"}, "[21]": {"tested_on": "ryegrass, Italian (italian ryegrass, Lolium multiflorum)", "experiment": "Test A postemergence application, visual injury rating 0-100", "conditions": "10 days", "method_in_brief": "as §1"}, "soybean (Glycine max) [22]": {"tested_on": "soybean (Glycine max)", "experiment": "Test A postemergence application, visual injury rating 0-100", "conditions": "10 days", "method_in_brief": "as §1"}, "[23]": {"tested_on": "wheat (Triticum aestivum)", "experiment": "Test A postemergence application, visual injury rating 0-100", "conditions": "10 days", "method_in_brief": "as §1"}, "[24]": {"tested_on": "barnyardgrass (Echinochloa crusgalli)", "experiment": "Test B flooded paddy test, visual plant response rating 0-100", "conditions": "250 g ai/ha, Flood, applied to paddy water, evaluated after 13 days", "method_in_brief": "(§2)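 Treatment occurs at the 2-leaf stage by adding compound to floodwater standing 3 cm above the soil, a level kept for the whole test. Plants stay in the greenhouse 13 days before visual comparison with controls.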"}, "[25]": {"tested_on": "ducksalad (Heteranthera limosa)", "experiment": "Test B flooded paddy test, visual plant response rating 0-100", "conditions": "250 g ai/ha, Flood, applied to paddy water, evaluated after 13 days", "method_in_brief": "as §2"}, "rice (Oryza sativa)": {"tested_on": "rice (Oryza sativa)", "experiment": "Test B flooded paddy test, visual plant response rating 0-100", "conditions": "250 g ai/ha, Flood, applied to paddy water, evaluated after 13 days", "method_in_brief": "as §2"}, "[26]": {"tested_on": "sedge, umbrella (small-flower umbrella sedge, Cyperus difformis)", "experiment": "Test B flooded paddy test, visual plant response rating 0-100", "conditions": "250 g ai/ha, Flood, applied to paddy water, evaluated after 13 days", "method_in_brief": "as §2"}, "[27]": {"conditions": "31 g ai/ha, postemergence, 0 = no effect, 100 = complete control"}, "[28]": {"conditions": "Postemergence, 125 g ai/ha, 0 is no effect, 100 is complete control"}}}
{"smiles": "CC1(C(=O)NC2C=CC(C(=O)O)C2)CN(c2cc(F)cc(Cl)c2)C(=O)O1", "note": "(centres unmarked) [Compound 6]", "values": [{"measurement": "Barnyardgrass plant response rating (0-100)", "setting": "[1]; 31 g ai/ha", "result": 20}, {"measurement": "Barnyardgrass plant response rating (0 to 100 scale)", "setting": "[1]; 125 g ai/ha", "result": 100}, {"measurement": "Blackgrass plant response rating (0-100)", "setting": "[2]; 31 g ai/ha", "result": 30}, {"measurement": "Blackgrass plant response rating (0 to 100 scale)", "setting": "[2]; 125 g ai/ha", "result": 60}, {"measurement": "Corn plant response rating (0-100)", "setting": "corn (Zea mays) [3]; 31 g ai/ha", "result": 30}, {"measurement": "Corn plant response rating (0 to 100 scale)", "setting": "corn (Zea mays) [3]; 125 g ai/ha", "result": 90}, {"measurement": "Foxtail, Green plant response rating (0-100)", "setting": "[4]; 31 g ai/ha", "result": 50}, {"measurement": "Foxtail, Green plant response rating (0 to 100 scale)", "setting": "[4]; 125 g ai/ha", "result": 100}, {"measurement": "Kochia plant response rating (0-100)", "setting": "kochia (Bassia scoparia) [5]; 31 g ai/ha", "result": 100}, {"measurement": "Kochia plant response rating (0 to 100 scale)", "setting": "kochia (Bassia scoparia) [5]; 125 g ai/ha", "result": 100}, {"measurement": "Oat, Wild plant response rating (0-100)", "setting": "[6]; 31 g ai/ha", "result": 30}, {"measurement": "Oat, Wild plant response rating (0 to 100 scale)", "setting": "[6]; 125 g ai/ha", "result": 90}, {"measurement": "Amaranth, Palmer plant response rating (0-100)", "setting": "[7]; 31 g ai/ha", "result": 60}, {"measurement": "Amaranth, Palmer plant response rating (0 to 100 scale)", "setting": "[7]; 125 g ai/ha", "result": 90}, {"measurement": "Ragweed plant response rating (0-100)", "setting": "[8]; 31 g ai/ha", "result": 0}, {"measurement": "Ragweed plant response rating (0 to 100 scale)", "setting": "[8]; 125 g ai/ha", "result": 40}, {"measurement": "Soybean plant response rating (0-100)", "setting": "soybean (Glycine max) [9]; 31 g ai/ha", "result": 50}, {"measurement": "Soybean plant response rating (0 to 100 scale)", "setting": "soybean (Glycine max) [9]; 125 g ai/ha", "result": 80}, {"measurement": "Wheat plant response rating (0-100)", "setting": "[10]; 31 g ai/ha", "result": 50}, {"measurement": "Wheat plant response rating (0 to 100 scale)", "setting": "[10]; 125 g ai/ha", "result": 90}, {"measurement": "Barnyardgrass plant response rating (0-100)", "setting": "[11]; [27]", "result": 100}, {"measurement": "Barnyardgrass plant response rating (0 to 100 scale)", "setting": "[11]; [28]", "result": 100}, {"measurement": "Blackgrass plant response rating (0-100)", "setting": "[12]; [27]", "result": 80}, {"measurement": "Blackgrass plant response rating (0 to 100 scale)", "setting": "[12]; [28]", "result": 90}, {"measurement": "Corn plant response rating (0-100)", "setting": "corn (Zea mays) [13]; [27]", "result": 100}, {"measurement": "Corn plant response rating (0 to 100 scale)", "setting": "corn (Zea mays) [13]; [28]", "result": 100}, {"measurement": "Galium plant response rating (0-100)", "setting": "[14]; [27]", "result": 80}, {"measurement": "Galium plant response rating (0 to 100 scale)", "setting": "[14]; [28]", "result": 80}, {"measurement": "Foxtail, Green plant response rating (0-100)", "setting": "[15]; [27]", "result": 90}, {"measurement": "Foxtail, Green plant response rating (0 to 100 scale)", "setting": "[15]; [28]", "result": 90}, {"measurement": "Horseweed plant response rating (0-100)", "setting": "[16]; [27]", "result": 40}, {"measurement": "Horseweed plant response rating (0 to 100 scale)", "setting": "[16]; [28]", "result": 90}, {"measurement": "Kochia plant response rating (0-100)", "setting": "kochia (Bassia scoparia) [17]; [27]", "result": 80}, {"measurement": "Kochia plant response rating (0 to 100 scale)", "setting": "kochia (Bassia scoparia) [17]; [28]", "result": 80}, {"measurement": "Oat, Wild plant response rating (0-100)", "setting": "[18]; [27]", "result": 90}, {"measurement": "Oat, Wild plant response rating (0 to 100 scale)", "setting": "[18]; [28]", "result": 100}, {"measurement": "Amaranth, Palmer plant response rating (0-100)", "setting": "[19]; [27]", "result": 90}, {"measurement": "Amaranth, Palmer / Pigweed, Palmer plant response rating (0 to 100 scale)", "setting": "[19]; [28]", "result": 90}, {"measurement": "Ragweed plant response rating (0-100)", "setting": "[20]; [27]", "result": 60}, {"measurement": "Ragweed plant response rating (0 to 100 scale)", "setting": "[20]; [28]", "result": 80}, {"measurement": "Ryegrass, Italian plant response rating (0-100)", "setting": "[21]; [27]", "result": 80}, {"measurement": "Ryegrass, Italian plant response rating (0 to 100 scale)", "setting": "[21]; [28]", "result": 90}, {"measurement": "Soybean plant response rating (0-100)", "setting": "soybean (Glycine max) [22]; [27]", "result": 80}, {"measurement": "Soybean plant response rating (0 to 100 scale)", "setting": "soybean (Glycine max) [22]; [28]", "result": 80}, {"measurement": "Wheat plant response rating (0-100)", "setting": "[23]; [27]", "result": 90}, {"measurement": "Wheat plant response rating (0 to 100 scale)", "setting": "[23]; [28]", "result": 90}, {"measurement": "Plant response rating, Barnyardgrass (0 to 100 scale, 0 is no effect and 100 is complete control)", "setting": "[24]", "result": 70}, {"measurement": "Plant response rating, Ducksalad (0 to 100 scale, 0 is no effect and 100 is complete control)", "setting": "[25]", "result": 95}, {"measurement": "Plant response rating, Rice (0 to 100 scale, 0 is no effect and 100 is complete control)", "setting": "rice (Oryza sativa)", "result": 35}, {"measurement": "Plant response rating, Sedge, Umbrella (0 to 100 scale, 0 is no effect and 100 is complete control)", "setting": "[26]", "result": 95}]}
